Measured values: US20250230193A1, “CYCLIC COMPOUND HAVING SELECTIVE KRAS INHIBITORY EFFECT ON HRAS AND NRAS” (CHUGAI SEIYAKU KABUSHIKI KAISHA, priority 2022, published 2025)

Key:
[1] = target: GDP-bound NRAS wild-type protein (Homo sapiens, UniProt P01111); assay: Binding to NRAS by surface plasmon resonance (SPR), Single Cycle Kinetics; conditions: SPR; KD ratio class
[2] = target: GDP-bound HRAS wild-type protein (Homo sapiens, UniProt P01112); assay: Binding to HRAS by surface plasmon resonance (SPR), Single Cycle Kinetics; conditions: SPR; KD ratio class
Sequence of GDP-bound HRAS wild-type protein (P01112 whole entry): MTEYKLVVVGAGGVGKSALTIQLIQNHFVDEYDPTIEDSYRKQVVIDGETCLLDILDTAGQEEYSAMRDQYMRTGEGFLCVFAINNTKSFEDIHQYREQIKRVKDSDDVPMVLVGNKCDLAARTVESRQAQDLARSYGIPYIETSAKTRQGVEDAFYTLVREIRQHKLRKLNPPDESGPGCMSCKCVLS

Sequence of GDP-bound NRAS wild-type protein (P01111 whole entry): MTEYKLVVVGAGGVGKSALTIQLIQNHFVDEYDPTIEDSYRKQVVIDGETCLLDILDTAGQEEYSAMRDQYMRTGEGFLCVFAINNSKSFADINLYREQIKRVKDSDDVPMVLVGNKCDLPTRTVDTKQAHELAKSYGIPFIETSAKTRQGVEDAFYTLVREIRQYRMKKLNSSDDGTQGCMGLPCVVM

| SMILES | NRAS/KRAS (ratio of KD value for GDP-bound NRAS wild-type protein to KD value for KRAS) [1] | HRAS/KRAS (ratio of KD value for GDP-bound HRAS wild-type protein to KD value for KRAS) [2] |
| --- | --- | --- |
| CCO[C@@H]1C[C@H]2C(=O)NC3(CCC3)C(=O)N(C)[C@@H](C3CCCC3)C(=O)N(C)[C@H](C(=O)N(C)CCOC)CC(=O)N(C)[C@@H](CC)C(=O)N[C@@H]([C@@H](C)CC)C(=O)N(C)CC(=O)N(C)[C@H]3C/C=C\CCN(C3=O)[C@@H](Cc3ccc(C(F)(F)F)cc3)C(=O)N(C)CC(=O)N[C@@H](CCc3cc(F)c(C(F)(F)F)c(F)c3)C(=O)N2C1 [PP1316] | A (a compound having 10 or more and less than 20 is denoted as A) | A (a compound having 10 or more and less than 20 is denoted as A) |
| CCO[C@@H]1C[C@H]2C(=O)NC3(CCC3)C(=O)N(C)[C@@H](C3CCCC3)C(=O)N(C)[C@H](C(=O)N(C)CCOC)CC(=O)N(C)[C@@H](CC(C)C)C(=O)N[C@@H]([C@@H](C)CC)C(=O)N(C)CC(=O)N(C)[C@H]3C/C=C\CCN(C3=O)[C@@H](Cc3ccc(C(F)(F)F)cc3)C(=O)N(C)CC(=O)N[C@@H](CCc3cc(F)c(C(F)(F)F)c(F)c3)C(=O)N2C1 [PP1317] | A (a compound having 10 or more and less than 20 is denoted as A) | B (a compound having 3 or more and less than 10 is denoted as B) |
| CCO[C@@H]1C[C@H]2C(=O)NC3(CCC3)C(=O)N(C)[C@@H](C3CCCC3)C(=O)N(C)[C@H](C(=O)N(C)CCOC)CC(=O)N(C)[C@@H](CC3CC3)C(=O)N[C@@H]([C@@H](C)CC)C(=O)N(C)CC(=O)N(C)[C@H]3C/C=C\CCN(C3=O)[C@@H](Cc3ccc(C(F)(F)F)cc3)C(=O)N(C)CC(=O)N[C@@H](CCc3cc(F)c(C(F)(F)F)c(F)c3)C(=O)N2C1 [PP1318] | A (a compound having 10 or more and less than 20 is denoted as A) | A (a compound having 10 or more and less than 20 is denoted as A) |
| CCO[C@@H]1C[C@H]2C(=O)NC3(CCC3)C(=O)N(C)[C@@H](C3CCCC3)C(=O)N(C)[C@H](C(=O)N(C)CCOC)CC(=O)N(C)[C@@H](C)C(=O)N[C@@H]([C@@H](C)CC)C(=O)N(C)CC(=O)N(C)[C@H]3C/C=C\CCN(C3=O)[C@@H](Cc3ccc(C(F)(F)F)cc3)C(=O)N(C)CC(=O)N[C@@H](CCc3cc(F)c(C(F)(F)F)c(F)c3)C(=O)N2C1 [PP1319] | A (a compound having 10 or more and less than 20 is denoted as A) | B (a compound having 3 or more and less than 10 is denoted as B) |
| CCO[C@@H]1C[C@H]2C(=O)NC3(CCC3)C(=O)N(C)[C@@H](C3CCCC3)C(=O)N(C)[C@H](C(=O)N(C)CCOC)CC(=O)N(C)[C@@H](CC(F)F)C(=O)N[C@@H]([C@@H](C)CC)C(=O)N(C)CC(=O)N(C)[C@H]3C/C=C\CCN(C3=O)[C@@H](Cc3ccc(C(F)(F)F)cc3)C(=O)N(C)CC(=O)N[C@@H](CCc3cc(F)c(C(F)(F)F)c(F)c3)C(=O)N2C1 [PP1320] | A (a compound having 10 or more and less than 20 is denoted as A) | A (a compound having 10 or more and less than 20 is denoted as A) |
| CCO[C@@H]1C[C@H]2C(=O)NC3(CCC3)C(=O)N(C)[C@@H](C3CCCC3)C(=O)N(C)[C@H](C(=O)N(C)CCOC)CC(=O)N(C)[C@@H](CC)C(=O)N[C@@H]([C@@H](C)CC)C(=O)N(C)CC(=O)N(C)[C@H]3C/C=C\CCN(C3=O)[C@@H](Cc3ccc(C(F)(F)F)cc3)C(=O)N(C)CC(=O)N[C@@H](CCc3ccc(C(F)(F)F)c(OC)c3)C(=O)N2C1 [PP1321] | A (a compound having 10 or more and less than 20 is denoted as A) | B (a compound having 3 or more and less than 10 is denoted as B) |
| CCO[C@@H]1C[C@H]2C(=O)NC3(CCC3)C(=O)N(C)[C@@H](C3CCCC3)C(=O)N(C)[C@H](C(=O)N(C)CCOC)CC(=O)N(C)[C@@H](CC)C(=O)N[C@@H]([C@@H](C)CC)C(=O)N(C)CC(=O)N(C)[C@H]3C/C=C\CCN(C3=O)[C@@H](Cc3ccc(C(F)(F)F)cc3)C(=O)N(C)CC(=O)N[C@@H](CCc3ccc4sccc4c3)C(=O)N2C1 [PP1322] | A (a compound having 10 or more and less than 20 is denoted as A) | A (a compound having 10 or more and less than 20 is denoted as A) |
| CCO[C@@H]1C[C@H]2C(=O)NC3(CCC3)C(=O)N(C)[C@@H](C3CCCC3)C(=O)N(C)[C@H](C(=O)N(C)CCOC)CC(=O)N(C)[C@@H](CC(C)C)C(=O)N[C@@H]([C@@H](C)CC)C(=O)N(C)CC(=O)N(C)[C@H]3C/C=C\CCN(C3=O)[C@@H](Cc3ccc(C(F)(F)F)cc3)C(=O)N(C)CC(=O)N[C@@H](CCc3ccc(C(F)(F)F)c(OC)c3)C(=O)N2C1 [PP1324] | A (a compound having 10 or more and less than 20 is denoted as A) | A (a compound having 10 or more and less than 20 is denoted as A) |
| CCO[C@@H]1C[C@H]2C(=O)NC3(CCC3)C(=O)N(C)[C@@H](C3CCCC3)C(=O)N(C)[C@H](C(=O)N(C)CCOC)CC(=O)N(C)[C@@H](CC(C)C)C(=O)N[C@@H]([C@@H](C)CC)C(=O)N(C)CC(=O)N(C)[C@H]3C/C=C\CCN(C3=O)[C@@H](Cc3ccc(C(F)(F)F)cc3)C(=O)N(C)CC(=O)N[C@@H](CCc3ccc4sccc4c3)C(=O)N2C1 [PP1325] | A (a compound having 10 or more and less than 20 is denoted as A) | A (a compound having 10 or more and less than 20 is denoted as A) |
| CCO[C@@H]1C[C@H]2C(=O)NC3(CCC3)C(=O)N(C)[C@@H](C3CCCC3)C(=O)N(C)[C@H](C(=O)N(C)CCOC)CC(=O)N(C)[C@@H](CC(C)C)C(=O)N[C@@H]([C@@H](C)CC)C(=O)N(C)CC(=O)N(C)[C@H]3C/C=C\CCN(C3=O)[C@@H](Cc3ccc(C(F)(F)F)cc3)C(=O)N(C)CC(=O)N[C@@H](CCc3ccc(Cl)c(Cl)c3)C(=O)N2C1 [PP1326] | AA (a compound having 20 or more is denoted as AA) | A (a compound having 10 or more and less than 20 is denoted as A) |
| CCO[C@@H]1C[C@H]2C(=O)NC3(CCC3)C(=O)N(C)[C@@H](C3CCCC3)C(=O)N(C)[C@H](C(=O)N(C)CCOC)CC(=O)N(C)[C@@H](CC3CC3)C(=O)N[C@@H]([C@@H](C)CC)C(=O)N(C)CC(=O)N(C)[C@H]3C/C=C\CCN(C3=O)[C@@H](Cc3ccc(C(F)(F)F)cc3)C(=O)N(C)CC(=O)N[C@@H](CCc3ccc(C(F)(F)F)c(OC)c3)C(=O)N2C1 [PP1327] | A (a compound having 10 or more and less than 20 is denoted as A) | A (a compound having 10 or more and less than 20 is denoted as A) |
| CCO[C@@H]1C[C@H]2C(=O)NC3(CCC3)C(=O)N(C)[C@@H](C3CCCC3)C(=O)N(C)[C@H](C(=O)N(C)CCOC)CC(=O)N(C)[C@@H](CC3CC3)C(=O)N[C@@H]([C@@H](C)CC)C(=O)N(C)CC(=O)N(C)[C@H]3C/C=C\CCN(C3=O)[C@@H](Cc3ccc(C(F)(F)F)cc3)C(=O)N(C)CC(=O)N[C@@H](CCc3ccc4sccc4c3)C(=O)N2C1 [PP1328] | A (a compound having 10 or more and less than 20 is denoted as A) | A (a compound having 10 or more and less than 20 is denoted as A) |
| CCO[C@@H]1C[C@H]2C(=O)NC3(CCC3)C(=O)N(C)[C@@H](C3CCCC3)C(=O)N(C)[C@H](C(=O)N(C)CCOC)CC(=O)N(C)[C@@H](CC3CC3)C(=O)N[C@@H]([C@@H](C)CC)C(=O)N(C)CC(=O)N(C)[C@H]3C/C=C\CCN(C3=O)[C@@H](Cc3ccc(C(F)(F)F)cc3)C(=O)N(C)CC(=O)N[C@@H](CCc3ccc(Cl)c(Cl)c3)C(=O)N2C1 [PP1329] | AA (a compound having 20 or more is denoted as AA) | A (a compound having 10 or more and less than 20 is denoted as A) |
| CCO[C@@H]1C[C@H]2C(=O)NC3(CCC3)C(=O)N(C)[C@@H](C(CC)CC)C(=O)N(C)[C@H](C(=O)N(C)CCOC)CC(=O)N(C)[C@@H](CC)C(=O)N[C@@H]([C@@H](C)CC)C(=O)N(C)CC(=O)N(C)[C@H]3C/C=C\CCN(C3=O)[C@@H](Cc3ccc(C(F)(F)F)cc3)C(=O)N(C)CC(=O)N[C@@H](CCc3cc(F)c(C(F)(F)F)c(F)c3)C(=O)N2C1 [PP1330] | AA (a compound having 20 or more is denoted as AA) | A (a compound having 10 or more and less than 20 is denoted as A) |
| CCC[C@H]1C(=O)N[C@@H]([C@@H](C)CC)C(=O)N(C)CC(=O)N(C)[C@H]2C/C=C\CCN(C2=O)[C@@H](Cc2ccc(C(F)(F)F)cc2)C(=O)N(C)CC(=O)N[C@@H](CCc2cc(F)c(C(F)(F)F)c(F)c2)C(=O)N2C[C@H](OCC)C[C@H]2C(=O)NC2(CCC2)C(=O)N(C)[C@@H](C2CCCC2)C(=O)N(C)[C@H](C(=O)N(C)CCOC)CC(=O)N1C [PP1331] | A (a compound having 10 or more and less than 20 is denoted as A) | A (a compound having 10 or more and less than 20 is denoted as A) |
| CCO[C@@H]1C[C@H]2C(=O)NC3(CCC3)C(=O)N(C)[C@@H](C3CCCC3)C(=O)N(C)[C@H](C(=O)N(C)C)CC(=O)N(C)[C@@H](CC)C(=O)N[C@@H]([C@@H](C)CC)C(=O)N(C)CC(=O)N(C)[C@H]3CC/C=C(/C)CN(C3=O)[C@@H](Cc3ccc(C(F)(F)F)cc3)C(=O)N(C)CC(=O)N[C@@H](CCc3cc(F)c(C(F)(F)F)c(F)c3)C(=O)N2C1 [PP1334] | B (a compound having 3 or more and less than 10 is denoted as B) | B (a compound having 3 or more and less than 10 is denoted as B) |
